Reference: PMC7265429, “Characterization of a new small-molecule inhibitor of HDAC6 in glioblastoma” (Cell Death & Disease, 2020)

System: GNS166 cells
Assay: Microarray whole-transcriptome gene expression analysis
Format: cell-based, human
Description: Whole-transcriptome analysis was performed from 300 ng of RNA using HuGene-2_0-st-v1 expression array (Affymetrix), which covers 48,226 transcripts. Raw data were first checked for quality purposes through the Affymetrix® Expression Console™ Software v1.4.1 and TAC software v4.0. Then, data were normalized using the Robust Multi-array Average (RMA) and analyzed by Limma tool. Probesets with FDR-corrected p-values smaller than 0.05 were selected. Functional enrichment on Gene Ontology (GO) biological processes was performed on a smaller subset of the differentially expressed genes (corrected p-value < 0.001) by means of Broad Institute GSEA. […] The data that support this study have been deposited in NCBI´s Gene Expression Omnibus and are accessible through GEO series accession number GSE143887.

For `O=C(CCCCCCC(=O)Nc1ccccc1)NO` [SAHA, Suberoylanilide hydroxamic acid], the “logFC LIPA” value (5 µM SAHA vs DMSO, transcript TC1000012577.hg.1) was 1.686, the “logFC ARNTL” value (5 µM SAHA vs DMSO, transcript TC1100006899.hg.1) was 1.497 and the “logFC C11orf74” value (5 µM SAHA vs DMSO, transcript TC1100007307.hg.1) was 1.1776. For the same compound, the “logFC FAM111B” value (5 µM SAHA vs DMSO, transcript TC1100007727.hg.1) was 1.402, the “logFC CYP2R1” value (5 µM SAHA vs DMSO, transcript TC1100010185.hg.1) was 1.194 and the “logFC SESN3” value (5 µM SAHA vs DMSO, transcript TC1100012019.hg.1) was 1.415. For the same compound, the “logFC MMP12” value (5 µM SAHA vs DMSO, transcript TC1100012134.hg.1) was 1.855, the “logFC BIRC3” value (5 µM SAHA vs DMSO, transcript TC1100013087.hg.1) was 2.344 and the “logFC CCND2” value (5 µM SAHA vs DMSO, transcript TC1200006555.hg.1) was 1.786. The “logFC GPRC5A” value (5 µM SAHA vs DMSO, transcript TC1200006896.hg.1) was 1.771, the “logFC STK38L” value (5 µM SAHA vs DMSO, transcript TC1200007146.hg.1) was 1.792 and the “logFC LRP1” value (5 µM SAHA vs DMSO, transcript TC1200007861.hg.1) was 1.377. For the same compound, the “logFC TCP11L2” value (5 µM SAHA vs DMSO, transcript TC1200008726.hg.1) was 1.788, the “logFC SLC2A3” value (5 µM SAHA vs DMSO, transcript TC1200009800.hg.1) was 1.712 and the “logFC ABCD2” value (5 µM SAHA vs DMSO, transcript TC1200010413.hg.1) was 2.708. For the same compound, the “logFC NELL2” value (5 µM SAHA vs DMSO, transcript TC1200010490.hg.1) was 2.463, the “logFC FAIM2” value (5 µM SAHA vs DMSO, transcript TC1200010642.hg.1) was 1.773 and the “logFC AGAP2” value (5 µM SAHA vs DMSO, transcript TC1200010976.hg.1) was 1.559. The “logFC KITLG” value (5 µM SAHA vs DMSO, transcript TC1200011460.hg.1) was 1.767, the “logFC LUM” value (5 µM SAHA vs DMSO, transcript TC1200011495.hg.1) was 3.868 and the “logFC FGD6” value (5 µM SAHA vs DMSO, transcript TC1200011574.hg.1) was 1.639. The “logFC MGST1” value (5 µM SAHA vs DMSO, transcript TC1200012597.hg.1) was 1.82, the “logFC CCNA1” value (5 µM SAHA vs DMSO, transcript TC1300006879.hg.1) was 1.421 and the “logFC SERTM1” value (5 µM SAHA vs DMSO, transcript TC1300006883.hg.1) was 2.721. For the same compound, the “logFC NDFIP2” value (5 µM SAHA vs DMSO, transcript TC1300007592.hg.1) was 1.353, the “logFC CLDN10” value (5 µM SAHA vs DMSO, transcript TC1300007752.hg.1) was 1.556 and the “logFC RAP2A” value (5 µM SAHA vs DMSO, transcript TC1300007780.hg.1) was 1.182. The “logFC SLITRK6” value (5 µM SAHA vs DMSO, transcript TC1300009394.hg.1) was 2.414, the “logFC KDELC1” value (5 µM SAHA vs DMSO, transcript TC1300009674.hg.1) was 1.5525 and the “logFC HSPA2” value (5 µM SAHA vs DMSO, transcript TC1400007443.hg.1) was 3.285. For the same compound, the “logFC PPP4R4” value (5 µM SAHA vs DMSO, transcript TC1400008058.hg.1) was 2.48, the “logFC TXNDC16” value (5 µM SAHA vs DMSO, transcript TC1400009184.hg.1) was 1.763 and the “logFC EGLN3” value (5 µM SAHA vs DMSO, transcript TC1400010730.hg.1) was 2.2444. For the same compound, the “logFC CKMT1B” value (5 µM SAHA vs DMSO, transcript TC1500007062.hg.1) was 2.569, the “logFC CKMT1A” value (5 µM SAHA vs DMSO, transcript TC1500007067.hg.1) was 3.452 and the “logFC IQCH” value (5 µM SAHA vs DMSO, transcript TC1500007640.hg.1) was 1.591. The “logFC ARRDC4” value (5 µM SAHA vs DMSO, transcript TC1500008470.hg.1) was 1.5, the “logFC GCOM1” value (5 µM SAHA vs DMSO, transcript TC1500010744.hg.1) was 1.317 and the “logFC ATP1B2” value (5 µM SAHA vs DMSO, transcript TC1700006763.hg.1) was 3.1227. The “logFC TMEM107” value (5 µM SAHA vs DMSO, transcript TC1700009676.hg.1) was 1.351, the “logFC CORO6” value (5 µM SAHA vs DMSO, transcript TC1700010252.hg.1) was 1.546 and the “logFC C1QL1” value (5 µM SAHA vs DMSO, transcript TC1700010856.hg.1) was 1.605. The “logFC TTLL6” value (5 µM SAHA vs DMSO, transcript TC1700011007.hg.1) was 1.858, the logFC (5 µM SAHA vs DMSO, transcript TC1700011261.hg.1) was 1.393 and the “logFC TMEM241” value (5 µM SAHA vs DMSO, transcript TC1800008281.hg.1) was 1.807. The “logFC REEP6” value (5 µM SAHA vs DMSO, transcript TC1900006537.hg.1) was 1.987, the “logFC INAFM1” value (5 µM SAHA vs DMSO, transcript TC1900008416.hg.1) was 2.5078 and the “logFC PRKCG” value (5 µM SAHA vs DMSO, transcript TC1900008825.hg.1) was 1.503. The “logFC RFPL4A” value (5 µM SAHA vs DMSO, transcript TC1900008931.hg.1) was 3.505, the “logFC RFPL4AL1” value (5 µM SAHA vs DMSO, transcript TC1900008932.hg.1) was 2.766 and the “logFC KCNC3” value (5 µM SAHA vs DMSO, transcript TC1900011194.hg.1) was 1.754. The “logFC FXYD7” value (5 µM SAHA vs DMSO, transcript TC1900011710.hg.1) was 2.141, the “logFC RTBDN” value (5 µM SAHA vs DMSO, transcript TC1900011892.hg.1) was 2.027 and the “logFC RNF24” value (5 µM SAHA vs DMSO, transcript TC2000008242.hg.1) was 1.55. For the same compound, the “logFC TASP1” value (5 µM SAHA vs DMSO, transcript TC2000008436.hg.1) was 1.327, the “logFC FLRT3” value (5 µM SAHA vs DMSO, transcript TC2000008445.hg.1) was 2.943 and the “logFC CYP24A1” value (5 µM SAHA vs DMSO, transcript TC2000009522.hg.1) was 1.58. The “logFC LCA5L” value (5 µM SAHA vs DMSO, transcript TC2100008171.hg.1) was 1.839, the “logFC H1F0” value (5 µM SAHA vs DMSO, transcript TC2200007318.hg.1) was 1.771 and the “logFC, unannotated transcript” value (DMSO vs SAHA, downregulated, transcript 23064072) was -1.45. For the same compound, the “logFC, unannotated transcript” value (DMSO vs SAHA, downregulated, transcript 23064958) was -1.242, the “logFC, unannotated transcript” value (DMSO vs SAHA, downregulated, transcript 23066344) was -2.142 and the “logFC, unannotated transcript” value (DMSO vs SAHA, downregulated, transcript 23066350) was -1.951. For the same compound, the “logFC, unannotated transcript” value (DMSO vs SAHA, downregulated, transcript 23066369) was -2.142, the “logFC, unannotated transcript” value (DMSO vs SAHA, downregulated, transcript 23066376) was -1.488 and the “logFC, unannotated transcript” value (DMSO vs SAHA, downregulated, transcript 23066377) was -1.951. The “logFC, unannotated transcript” value (DMSO vs SAHA, downregulated, transcript 23068519) was -1.54, the “logFC, unannotated transcript” value (DMSO vs SAHA, downregulated, transcript 23071518) was -1.2407 and the “logFC, unannotated transcript” value (DMSO vs SAHA, downregulated, transcript 23074026) was -1.4. For the same compound, the “logFC, unannotated transcript” value (DMSO vs SAHA, downregulated, transcript 23074907) was -1.601, the “logFC, unannotated transcript” value (DMSO vs SAHA, downregulated, transcript 23075457) was -1.338 and the “logFC, unannotated transcript” value (DMSO vs SAHA, downregulated, transcript 23075879) was -1.002. For the same compound, the “logFC, unannotated transcript” value (DMSO vs SAHA, downregulated, transcript 23076022) was -1.002, the “logFC, unannotated transcript” value (DMSO vs SAHA, downregulated, transcript 23076173) was -1.06 and the “logFC, unannotated transcript” value (DMSO vs SAHA, downregulated, transcript HTA2-pos-3662482_st) was -0.977. The “logFC, unannotated transcript” value (DMSO vs SAHA, downregulated, transcript HTA2-pos-3671550_st) was -1.877, the “logFC, unannotated transcript” value (DMSO vs SAHA, downregulated, transcript HTA2-pos-3671554_st) was -1.443 and the “logFC, unannotated transcript” value (DMSO vs SAHA, downregulated, transcript HTA2-pos-PSR17008077.hg.1) was -1.062. The “logFC, unannotated transcript” value (DMSO vs SAHA, downregulated, transcript HTA2-pos-PSR17008082.hg.1) was -1.0258, the “logFC, unannotated transcript” value (DMSO vs SAHA, downregulated, transcript HTA2-pos-PSR17013958.hg.1) was -1.428 and the “logFC ARAF” value (DMSO vs SAHA, downregulated, transcript TC0X00007148.hg.1) was -1.073. The “logFC RBM3” value (DMSO vs SAHA, downregulated, transcript TC0X00007195.hg.1) was -1.375, the “logFC SUV39H1” value (DMSO vs SAHA, downregulated, transcript TC0X00007200.hg.1) was -1.395 and the “logFC PLP2” value (DMSO vs SAHA, downregulated, transcript TC0X00007222.hg.1) was -1.034. For the same compound, the “logFC PBDC1” value (DMSO vs SAHA, downregulated, transcript TC0X00007686.hg.1) was -1.452, the “logFC MID2” value (DMSO vs SAHA, downregulated, transcript TC0X00008078.hg.1) was -1.792 and the “logFC HMGB3” value (DMSO vs SAHA, downregulated, transcript TC0X00008724.hg.1) was -1.132. For the same compound, the “logFC TAF9B” value (DMSO vs SAHA, downregulated, transcript TC0X00010136.hg.1) was -1.5452 and the “logFC STS” value (DMSO vs SAHA, downregulated, transcript TC0X00011259.hg.1) was -1.335.
